Source: PMC8177795 (Cancer Science, 2021)

Tests used:
Safety and tolerability = type: in vivo, Japanese patients
[1] = test system: relapsed/refractory (r/r) B‐cell malignancies; assay: Antitumor activity; type: in vivo, Japanese patients
[2] = Plasma pharmacokinetics of acalabrutinib and ACP‐5862; type: in vivo, Japanese patients
[3] = r/r CLL; cited from earlier work
r/r MCL = settings: cited from earlier work
[4] = CLL/SLL cohort (n = 9), Part 1 + Part 2
[5] = MCL cohort (n = 13), Part 1 + Part 2
[6] = multiple dose 100 mg BID, day 8, part 1
[7] = multiple dose 100 mg BID, day 8, part 1, fasting

## CC#CC(=O)N1CCC[C@H]1c1nc(-c2ccc(C(=O)Nc3ccccn3)cc2)c2c(N)nccn12 [acalabrutinib]
Safety and tolerability; r/r CLL/SLL cohort (N = 9)
  AE of clinical interest: Other leukopenia: 0 n (%)
  AE of clinical interest: Second primary malignancies (excl. nonmelanoma skin cancer): 1 (11.1) n (%)
  AE of clinical interest: Second primary malignancy: 1 (11.1) n (%)
  AE of clinical interest: Thrombocytopenia: 1 (11.1) n (%)
  AE of clinical interest: Tumor lysis syndrome: 0 n (%)
  Patients with any AE of clinical interest: 8 (88.9) n (%)
  Patients with any SAE: 2 (22.2) n (%)
  SAE: Abdominal pain upper: 0 n (%)
  SAE: Anemia: 0 n (%)
  SAE: Blood and lymphatic system disorders: 0 n (%)
  SAE: Colon cancer: 1 (11.1) n (%)
  SAE: Gastrointestinal disorders: 0 n (%)
  SAE: Infections and infestations: 1 (11.1) n (%)
  SAE: Neoplasms benign, malignant, and unspecified (incl. cysts and polyps): 1 (11.1) n (%)
  SAE: Pneumonia: 1 (11.1) n (%)
Safety and tolerability; r/r MCL cohort (N = 13)
  AE of clinical interest: Anemia: 3 (23.1) n (%)
  AE of clinical interest: Atrial fibrillation: 1 (7.7) n (%)
  AE of clinical interest: Cardiac events: 1 (7.7) n (%)
  AE of clinical interest: Hemorrhage: 4 (30.8) n (%)
  AE of clinical interest: Hepatotoxicity: 2 (15.4) n (%)
  AE of clinical interest: Infections: 7 (53.8) n (%)
  AE of clinical interest: Interstitial lung disease/pneumonitis: 1 (7.7) n (%)
  AE of clinical interest: Leukopenia: 4 (30.8) n (%)
  AE of clinical interest: Neutropenia: 3 (23.1) n (%)
  AE of clinical interest: Other hemorrhage: 4 (30.8) n (%)
  AE of clinical interest: Other leukopenia: 3 (23.1) n (%)
  AE of clinical interest: Second primary malignancies (excl. nonmelanoma skin cancer): 0 n (%)
  AE of clinical interest: Second primary malignancy: 0 n (%)
  AE of clinical interest: Thrombocytopenia: 3 (23.1) n (%)
  AE of clinical interest: Tumor lysis syndrome: 1 (7.7) n (%)
  Patients with any AE of clinical interest: 11 (84.6) n (%)
  Patients with any SAE: 3 (23.1) n (%)
  SAE: Abdominal pain upper: 1 (7.7) n (%)
  SAE: Anemia: 0 n (%)
  SAE: Blood and lymphatic system disorders: 0 n (%)
  SAE: Colon cancer: 0 n (%)
  SAE: Gastrointestinal disorders: 1 (7.7) n (%)
  SAE: Infections and infestations: 2 (15.4) n (%)
  SAE: Neoplasms benign, malignant, and unspecified (incl. cysts and polyps): 0 n (%)
  SAE: Pneumonia: 2 (15.4) n (%)
[1]; [4]
  CR: 0 Number (%) of patients with a response
  CRi: 2 (22) Number (%) of patients with a response
  Clinical PD: 0 Number (%) of patients with a response
  Nonresponse (total): 1 (11) Number (%) of patients with a response
  Not evaluable: 0 Number (%) of patients with a response
  ORR: 8 (89) Number (%) of patients with a response
  PD: 0 Number (%) of patients with a response
  PR: 6 (67) Number (%) of patients with a response
  PRL: 1 (11) Number (%) of patients with a response
  Stable disease: 0 Number (%) of patients with a response
[1]; CLL/SLL cohort including PRL (n = 9), Part 1 + Part 2
  ORR: 9 (100) Number (%) of patients with a response
[1]; [5]
  CR: 5 (38) Number (%) of patients with a response
  Nonresponse (total): 5 (38) Number (%) of patients with a response
  Not evaluable: 0 Number (%) of patients with a response
  ORR: 8 (62) Number (%) of patients with a response
  PD: 2 (15) Number (%) of patients with a response
  PR: 3 (23) Number (%) of patients with a response
  Stable disease: 3 (23) Number (%) of patients with a response
[1]; r/r CLL/SLL cohort (8/9 patients)
  Overall response rate (ORR): 89%
[1]; r/r CLL/SLL cohort (n = 9)
  Median progression‐free survival (PFS): not reached
[1]; r/r CLL/SLL cohort including PRL (9/9 patients)
  Overall response rate (ORR): 100%
[1]; r/r MCL cohort (8/13 patients)
  Overall response rate (ORR): 62%
[1]; r/r MCL cohort (n = 13)
  Median progression‐free survival (PFS): 7 months
[2]; after a single dose
  Coefficient of variation (CV) of Cmax: 174%
[2]; after multiple dosing
  Interpatient variability (CVs): < 30%
[2]; [6]
  RAC (extent of accumulation on multiple dosing), Amean ± SD: 1.69
  TC (time dependency of pharmacokinetics), Amean ± SD: 1.163 ± 0.4770
[2]; [7]
  CL/F (oral clearance), Amean ± SD: 84.89 ± 19.84 L/h
  t1/2, Amean ± SD: 1.795 ± 0.7404 h
[2]; multiple dose 100 mg BID, day 8, part 1, listed as Acalabrutinib
  RAC (extent of accumulation on multiple dosing), Amean ± SD: 1.694 ± 1.275
[2]; single dose 100 mg acalabrutinib, part 1, fasting
  CL/F (oral clearance), Amean ± SD: 99.54 ± 44.33 L/h
[2]; single‐ and multiple‐dose periods
  Absorption: rapidly absorbed
[3]
  Headache, patients: 43%
r/r MCL
  Headache, patients: 38%
